Reference: patent US10113968B2, “Specific detection and quantification of cardiolipin and isolated mitochondria by positively charged AIE fluorogens and method of manufacturing thereof” (priority 2013, dated 2018)

Tests used:
[1] = Fluorescence response of dye to CL-containing (TOCL/DOPC) and CL-free (DOPC) LUVs; details: for emission with CL-containing vesicles: TOCL/DOPC 1:1, 25 mM HEPES pH 7.4, λex=350 nm
Description: CL-containing vesicles are composed of TOCL/DOPC (1:1 molar ratio), and CL-free vesicles are composed of pure DOPC, respectively, in a 25 mM HEPES buffer at pH 7.4. [dye]=10 μM; [lipid]total=22 μM; λex=350 nm.
FIG. 3A is a plot of the fluorescence enhancement (I/I0−1) of TTAPE-Me at 480 nm with CL-containing and CL-free vesicles.
FIG. 3B is the linear region of the I/I0−1 value versus CL concentration. [dye]=10 μM; λex=350 nm.
FIG. 4B is a plot of the fluorescence enhancement at 480 nm versus CL content. [dye]=10 μM; [lipid]total=22 μM; λex=350 nm.
CL-containing and CL-free vesicles are composed of TOCL/DOPC (1:1 molar ratio) and pure DOPC, respectively, in a 25 mM HEPES buffer at pH 7.4. [dye]=10 μM; [lipid]total=22 μM; λex=350 nm.
The fluorescence enhancement (I/I0−1) of TTAPE-Me at 480 nm is in a linear fashion in the CL concentration of 0-10 μM (FIG. 3B), which lies in the physiological range of CL in mitochondrial membrane. Linear detection of CL can also be obtained with the varying content of TOCL (2-50% TOCL) in the vesicles (FIG. 4A-4B). The results imply that flexible TTAPE-Me to CL ratio is allowed in the detection and quantification of CL. In contrast, conventional NAO requires strict 2:1 ratio of NAO/CL for quantitative measurement. Moreover, the detection of CL can be done immediately upon mixing the vesicles with the probe without any extra treatment.
To determine whether TTAPE-Me can specifically detect CL, two types of large unilamellar vesicles (LUVs) 100-200 nm in diameter were prepared (FIG. 2A-2B). The CL-free vesicles were prepared by pure 1,2-dioleoyl-sn-glycero-[…] (DOPC), which is the most abundant phospholipid in eukaryotic membranes. CL-containing vesicles were fabricated by the mixture of 1,1′,2,2′-tetraoleoyl cardiolipin (TOCL) and DOPC, in which the zwitterionic DOPC is used to stabilize the vesicles.

isolated mitochondria = assay: Quantification and staining of isolated yeast mitochondria by fluorescence; design: species or system S. cerevisiae strain YPH 500; details: SEM buffer pH 7.2; [dye]=10 μM; λex=350 nm; emission at 480 nm
Text: Individual mitochondria from S. cerevisiae strain YPH 500 have been isolated and calibrated by Biuret test. […] In contrast, time-consuming and intricate procedures are involved when using NAO for the quantification of isolated mitochondria. The isolated mitochondria are fixed by formaldehyde, followed by multiple rinsing, centrifugation and resuspension steps. Further, the signal-to-noise ratio by using NAO is much smaller, likely due to the strong background of NAO in solution.

[2] = Fluorescence response to CL-containing and CL-free all-component LUVs; details: [dye]=10 μM
Description: (§1) Emission spectra of (C) TTAPE-Me and (D) NAO with CL-containing and CL-free all-component vesicles are shown. (E) Bar chart of the change in fluorescence intensity shown in panels C and D (red: CL-containing vesicles, blue: CL-free vesicles). [dye]=10 μM; [lipid]total=22 μM; for TTAPE-Me: λex=350 nm and λem=480 nm; for NAO: λex=499 nm and λem=530 nm.
Meanwhile, to mimic the mitochondrial membranes, CL-containing and CL-free all-component LUVs were prepared. The CL-containing and CL-free all-component LUVs were composed by the mixture of all the above mentioned lipids at their physiological ratios (FIG. 9A-9B). […] With the CL-containing LUVs, the greenish-blue fluorescence is enhanced by over 3-fold (FIGS. 7C & E). Parallel experiments were conducted with NAO as the probe. NAO is a turn-off sensor whose fluorescence is decreased in the presence of CL (FIG. 7D). However, CL is not the only lipid that induces the decrease of NAO signals—other lipids such as DPPE, PI, or DOPS, can also induce the decrease of NAO signals to a large extent (FIG. 7B).

[3] = Isothermal titration calorimetry (ITC) of CL-containing vesicles with TTAPE-Me; format: binding; details: 25° C., CL-containing vesicles TOCL/DOPC 1:1, curve fitting, read-out: dissociation constant
Description: [dye]=10 μM; [lipid]total=22 μM; λex=350 nm. (B) Job plot for determination of the binding stoichiometry of TTAPE-Me to CL-containing vesicles. The total concentration of TTAPE-Me and CL is kept at 20 μM. (C) calorimetric curves for titration of CL-containing vesicles with serial injections of TTAPE-Me at 25° C. (D) Binding isotherm as a function of [TTAPE-Me]/[lipid]total molar ratio. CL-containing vesicles are composed of TOCL and DOPC (1:1 molar ratio).
According to the AIE principle, TTAPE-Me is only fluorescent when bound, and thus the fluorescence can report the binding of TTAPE-Me to CL-containing vesicles. The emission intensity varying ratios of TTAPE-Me to CL-containing LUVs is then recorded and correlated to a Job plot (FIG. 5B). The plot has a peak at ˜0.67, corresponding to a 2:1 binding ratio for TOCL to TTAPE-Me. The binding ratio perfectly matches the charge ratio, providing further support that the binding of TTAPE-Me towards CL is primarily driven by electrostatic interaction. […] The binding curve was generated by integration of the area of each injection peak followed by the subtraction of the dilution heat of dye molecules (FIG. 5D).

[4] = Fluorescence response to vesicles of different single mitochondrial lipids; details: 20% TOCL, 100% DOPC, 40% DPPE, 2% soy PI, 1% DOPS, 2% SM, rest DOPC; [dye]=10 μM; [lipid]total=22 μM
Description: as §1
To further evaluate the specificity of TTAPE-Me towards CL, the response of TTAPE-Me to other major lipids found on mitochondrial membranes was examined. The other major lipids evaluated were 1,2-dipalmitoleoyl-sn-glycero-3-phosphoethanolamine (DPPE):
Six different types of LUVs were fabricated and were composed of each of the above lipids and TOCL and DOPC at the exact percentage as mitochondrial membrane, with the remaining percentage of each type of LUV filled by DOPC.
While DOPS and PI are also negatively charged, they carry only one charge per molecule and share only 1% and 2% of the total mitochondrial membrane lipids, respectively (CL for ˜20%).

pUC 18 DNA, 2686 bp = assay: Fluorescence of TTAPE-Me in the presence of plasmid DNA; details: wide range of DNA concentrations; [dye]=10 μM; λex=350 nm
Description: (TTAPE-Me with CL-containing LUVs is shown for comparison) [dye]=10 μM; λex=350 nm.
On the other hand, one might think that the negatively charged mitochondrial DNA (mtDNA) may interfere with the detection of CL by TTAPE-Me.

[5] = background statement; cited from earlier work
[6] = [dye]=10 μM, [lipid]total=22 μM

Compound | emission with CL-containing vesicles [1, 6] | relation of fluorescence intensity to mitochondria concentration (isolated mitochondria) | emission spectrum with CL-free all-component LUVs ([2]; [lipid]total=22 μM) | fluorescence enhancement with CL-containing all-component LUVs ([2]; [lipid]total=22 μM, λex=350 nm, λem=480 nm) | fluorescence with CL-containing vesicles on increase of NaCl concentration [1, 6] | emission with CL-free vesicles ([1]; pure DOPC vesicles, increasing total lipid concentration) | Kd [3] [nM] | fluorescence response to vesicles of different lipid contents (selectivity) [4] | fluorescence in the presence of plasmids (pUC 18 DNA, 2686 bp) | fluorescence in the presence of CL (all-component LUVs) ([2]; λex=499 nm, λem=530 nm) | water-solubility [5]
O=S(=O)([O-])CCCOc1ccc(/C(=C(\c2ccccc2)c2ccc(OCCCS(=O)(=O)[O-])cc2)c2ccccc2)cc1.[Na+].[Na+] [BSPOTPE, reference compound] | no remarkable fluorescence enhancement | – | – | – | – | – | – | – | – | – | –
C[N+](C)(C)CCOc1ccc(C(=C(c2ccc(OCC[N+](C)(C)C)cc2)c2ccc(OCC[N+](C)(C)C)cc2)c2ccc(OCC[N+](C)(C)C)cc2)cc1.[Br-].[Br-].[Br-].[Br-] [TTAPE-Me, 1,1,2,2-tetrakis[4-(2-trimethylammonio-ethoxy)phenyl]ethene tetrabromide] | turned on | linear relationship | remains identical to that of the free dye in buffer | over 3 fold | diminishes | remains rather weak | 2080 | selectively turned on with the TOCL vesicles | no fluorescence enhancement | – | –
CCCCCCCCC[n+]1c2cc(N(C)C)ccc2cc2ccc(N(C)C)cc21.[Br-] [NAO, 10-N-nonyl acridine orange, reference compound] | – | – | – | – | – | – | – | poor selectivity | – | decreased | poor water-solubility
